According to patent US8758816B2, “Compositions comprising azelastine and methods of use thereof” (priority 2004, dated 2014):
Counter-ions that a name gives are not always drawn. Like-named read-outs stand apart in the source and are kept apart here.

Key:
[1] = system: patients with seasonal allergic rhinitis (SAR); settings: in vivo
[2] = Leaching of azelastine into the polymer of unit dose containers; format: physicochemical
[3] = human, in vivo; cited from earlier work
[4] = system: patients with seasonal allergic rhinitis (SAR); assay: MP 428 study: 14.3.5 Vital Sign Assessments, Safety Population
[5] = Day 14, Patients of Age 12 to 17
[6] = Day 14, Patients of Age 18 and Beyond
[7] = Day 14, baseline at Screening, Patients of Age 12 to 17
[8] = Day 14, baseline at Screening, Patients of Age 18 and Beyond
[9] = Day 14, baseline at Screening, Safety Population
[10] = Screening, Patients of Age 12 to 17
[11] = Screening, Patients of Age 18 and Beyond

CN1CCCC(n2nc(Cc3ccc(Cl)cc3)c3ccccc3c2=O)CC1 (racemic) [Azelastine, (±)-1-(2H)-phthalazinone, 4-[(4-chlorophenyl)methyl]-2-(hexahydro-1-methyl-1H-azepin-4-yl)-, mono-hydrochloride]
Body Weight for Patients of Age 12 to 17, Actual, Mean [1]: 104.7 lb
Body Weight for Patients of Age 12 to 17, Actual, Median [1]: 104.0 lb
Body Weight for Patients of Age 12 to 17, Actual, Min-Max [1]: 98-112 lb
Body Weight for Patients of Age 18 and Beyond, Actual, Mean [1]: 186.2 lb
Body Weight for Patients of Age 18 and Beyond, Actual, Median [1]: 177.8 lb
Body Weight for Patients of Age 18 and Beyond, Actual, Min-Max [1]: 102-284 lb
Body Weight, Actual, Mean [1]: 181.2 lb
Body Weight, Actual, Median [1]: 174.0 lb
Body Weight, Actual, Min-Max [1]: 98-284 lb
Respiration, Actual, Median [1]: 16.0 bpm
Respiration, Change from baseline, Median [1]: 0.0 bpm
Respiration, Change from baseline, Min-Max [1]: −4-4 bpm
leaching into the container material ([2]; HDPE unit dose containers, in contrast to lower-density PE): reduce, substantially reduce, or eliminate leaching
leachability into the container material ([2]; containers of polymers other than HDPE, including polyethylenes of lower density): high degree of undesirable leachability
bitter taste adverse event [3]: 19.7%

CCC(=O)O[C@]1(C(=O)SCF)[C@H](C)C[C@H]2[C@@H]3C[C@H](F)C4=CC(=O)C=C[C@]4(C)[C@@]3(F)[C@@H](O)C[C@@]21C [Fluticasone, fluticasone propionate]
Diastolic Blood Pressure, Actual, Mean ([4]; Day 1, Safety Population): 74.0 mmHg
Diastolic Blood Pressure, Actual, Median ([4]; Day 1, Safety Population): 76.0 mmHg
Diastolic Blood Pressure, Actual, Min-Max ([4]; Day 1, Safety Population): 41-89 mmHg
Pulse Rate, Actual, Mean ([4]; Day 1, Safety Population): 75.0 bpm
Pulse Rate, Actual, Median ([4]; Day 1, Safety Population): 75.0 bpm
Pulse Rate, Actual, Min-Max ([4]; Day 1, Safety Population): 57-92 bpm
Respiration, Actual, Mean ([4]; Day 1, Safety Population): 15.8 bpm
Respiration, Actual, Median ([4]; Day 1, Safety Population): 16.0 bpm
Respiration, Actual, Min-Max ([4]; Day 1, Safety Population): 12-18 bpm
Systolic Blood Pressure, Actual, Mean ([4]; Day 1, Safety Population): 117.9 mmHg
Systolic Blood Pressure, Actual, Median ([4]; Day 1, Safety Population): 118.5 mmHg
Systolic Blood Pressure, Actual, Min-Max ([4]; Day 1, Safety Population): 93-142 mmHg
Temperature, Actual, Mean ([4]; Day 1, Safety Population): 97.89 ° F.
Temperature, Actual, Median ([4]; Day 1, Safety Population): 97.85 ° F.
Temperature, Actual, Min-Max ([4]; Day 1, Safety Population): 97.0-99.8 ° F.
Diastolic Blood Pressure, Actual, Mean ([4]; Day 7, Safety Population): 72.7 mmHg
Diastolic Blood Pressure, Actual, Median ([4]; Day 7, Safety Population): 74.0 mmHg
Diastolic Blood Pressure, Actual, Min-Max ([4]; Day 7, Safety Population): 58-86 mmHg
Diastolic Blood Pressure, Change from baseline, Mean ([4]; Day 7, Safety Population): −1.5 mmHg
Diastolic Blood Pressure, Change from baseline, Median ([4]; Day 7, Safety Population): −1.5 mmHg
Diastolic Blood Pressure, Change from baseline, Min-Max ([4]; Day 7, Safety Population): −15-19 mmHg
Pulse Rate, Actual, Mean ([4]; Day 7, Safety Population): 75.5 bpm
Pulse Rate, Actual, Median ([4]; Day 7, Safety Population): 74.0 bpm
Pulse Rate, Actual, Min-Max ([4]; Day 7, Safety Population): 52-102 bpm
Pulse Rate, Change from baseline, Mean ([4]; Day 7, Safety Population): 0.5 bpm
Pulse Rate, Change from baseline, Median ([4]; Day 7, Safety Population): −2.0 bpm
Pulse Rate, Change from baseline, Min-Max ([4]; Day 7, Safety Population): −29-38 bpm
Respiration, Actual, Mean ([4]; Day 7, Safety Population): 16.0 bpm
Respiration, Actual, Median ([4]; Day 7, Safety Population): 16.0 bpm
Respiration, Actual, Min-Max ([4]; Day 7, Safety Population): 12-20 bpm
Respiration, Change from baseline, Mean ([4]; Day 7, Safety Population): 0.2 bpm
Respiration, Change from baseline, Median ([4]; Day 7, Safety Population): 0.0 bpm
Respiration, Change from baseline, Min-Max ([4]; Day 7, Safety Population): −4-4 bpm
Systolic Blood Pressure, Actual, Mean ([4]; Day 7, Safety Population): 116.7 mmHg
Systolic Blood Pressure, Actual, Median ([4]; Day 7, Safety Population): 116.0 mmHg
Systolic Blood Pressure, Actual, Min-Max ([4]; Day 7, Safety Population): 95-142 mmHg
Systolic Blood Pressure, Change from baseline, Mean ([4]; Day 7, Safety Population): −1.4 mmHg
Systolic Blood Pressure, Change from baseline, Median ([4]; Day 7, Safety Population): −0.5 mmHg
Systolic Blood Pressure, Change from baseline, Min-Max ([4]; Day 7, Safety Population): −21-15 mmHg
Temperature, Actual, Mean ([4]; Day 7, Safety Population): 97.90 ° F.
Temperature, Actual, Median ([4]; Day 7, Safety Population): 97.95 ° F.
Temperature, Actual, Min-Max ([4]; Day 7, Safety Population): 96.0-98.9 ° F.
Temperature, Change from baseline, Mean ([4]; Day 7, Safety Population): −0.03 ° F.
Temperature, Change from baseline, Median ([4]; Day 7, Safety Population): 0.00 ° F.
Temperature, Change from baseline, Min-Max ([4]; Day 7, Safety Population): −1.8-1.8 ° F.
Body Weight for Patients of Age 12 to 17, Actual, Mean [4, 5]: 135.8 lb
Body Weight for Patients of Age 12 to 17, Actual, Median [4, 5]: 121.5 lb
Body Weight for Patients of Age 12 to 17, Actual, Min-Max [4, 5]: 87-197 lb
Body Weight for Patients of Age 18 and Beyond, Actual, Mean [4, 6]: 178.2 lb
Body Weight for Patients of Age 18 and Beyond, Actual, Median [4, 6]: 172.0 lb
Body Weight for Patients of Age 18 and Beyond, Actual, Min-Max [4, 6]: 115-265 lb
Body Weight, Actual, Mean ([4]; Day 14, Safety Population): 173.0 lb
Body Weight, Actual, Median ([4]; Day 14, Safety Population): 168.0 lb
Body Weight, Actual, Min-Max ([4]; Day 14, Safety Population): 87-265 lb
Diastolic Blood Pressure, Actual, Mean ([4]; Day 14, Safety Population): 73.6 mmHg
Diastolic Blood Pressure, Actual, Median ([4]; Day 14, Safety Population): 74.0 mmHg
Diastolic Blood Pressure, Actual, Min-Max ([4]; Day 14, Safety Population): 54-90 mmHg
Diastolic Blood Pressure, Change from baseline, Mean ([4]; Day 14, Safety Population): −0.4 mmHg
Diastolic Blood Pressure, Change from baseline, Median ([4]; Day 14, Safety Population): 0.0 mmHg
Diastolic Blood Pressure, Change from baseline, Min-Max ([4]; Day 14, Safety Population): −24-22 mmHg
Pulse Rate, Actual, Mean ([4]; Day 14, Safety Population): 75.3 bpm
Pulse Rate, Actual, Median ([4]; Day 14, Safety Population): 74.0 bpm
Pulse Rate, Actual, Min-Max ([4]; Day 14, Safety Population): 53-95 bpm
Pulse Rate, Change from baseline, Mean ([4]; Day 14, Safety Population): 0.3 bpm
Pulse Rate, Change from baseline, Median ([4]; Day 14, Safety Population): 1.0 bpm
Pulse Rate, Change from baseline, Min-Max ([4]; Day 14, Safety Population): −22-23 bpm
Respiration, Actual, Mean ([4]; Day 14, Safety Population): 15.8 bpm
Respiration, Actual, Median ([4]; Day 14, Safety Population): 16.0 bpm
Respiration, Actual, Min-Max ([4]; Day 14, Safety Population): 12-20 bpm
Respiration, Change from baseline, Mean ([4]; Day 14, Safety Population): 0.0 bpm
Respiration, Change from baseline, Median ([4]; Day 14, Safety Population): 0.0 bpm
Respiration, Change from baseline, Min-Max ([4]; Day 14, Safety Population): −4-4 bpm
Systolic Blood Pressure, Actual, Mean ([4]; Day 14, Safety Population): 118.9 mmHg
Systolic Blood Pressure, Actual, Median ([4]; Day 14, Safety Population): 117.0 mmHg
Systolic Blood Pressure, Actual, Min-Max ([4]; Day 14, Safety Population): 98-170 mmHg
Systolic Blood Pressure, Change from baseline, Mean ([4]; Day 14, Safety Population): 1.0 mmHg
Systolic Blood Pressure, Change from baseline, Median ([4]; Day 14, Safety Population): 1.5 mmHg
Systolic Blood Pressure, Change from baseline, Min-Max ([4]; Day 14, Safety Population): −20-40 mmHg
Temperature, Actual, Mean ([4]; Day 14, Safety Population): 97.86 ° F.
Temperature, Actual, Median ([4]; Day 14, Safety Population): 97.90 ° F.
Temperature, Actual, Min-Max ([4]; Day 14, Safety Population): 96.2-99.1 ° F.
Temperature, Change from baseline, Mean ([4]; Day 14, Safety Population): −0.03 ° F.
Temperature, Change from baseline, Median ([4]; Day 14, Safety Population): 0.10 ° F.
Temperature, Change from baseline, Min-Max ([4]; Day 14, Safety Population): −1.6-2.0 ° F.
Body Weight for Patients of Age 12 to 17, Change from baseline, Mean [4, 7]: −0.5 lb
Body Weight for Patients of Age 12 to 17, Change from baseline, Median [4, 7]: −0.5 lb
Body Weight for Patients of Age 12 to 17, Change from baseline, Min-Max [4, 7]: −2-2 lb
Body Weight for Patients of Age 18 and Beyond, Change from baseline, Mean [4, 8]: −0.5 lb
Body Weight for Patients of Age 18 and Beyond, Change from baseline, Median [4, 8]: 0.0 lb
Body Weight for Patients of Age 18 and Beyond, Change from baseline, Min-Max [4, 8]: −6-7 lb
Body Weight, Change from baseline, Mean [4, 9]: −0.5 lb
Body Weight, Change from baseline, Median [4, 9]: 0.0 lb
Body Weight, Change from baseline, Min-Max [4, 9]: −6-7 lb
Body Weight for Patients of Age 12 to 17, Actual, Mean [4, 10]: 136.3 lb
Body Weight for Patients of Age 12 to 17, Actual, Median [4, 10]: 122.5 lb
Body Weight for Patients of Age 12 to 17, Actual, Min-Max [4, 10]: 85-199 lb
Body Weight for Patients of Age 18 and Beyond, Actual, Mean [4, 11]: 177.9 lb
Body Weight for Patients of Age 18 and Beyond, Actual, Median [4, 11]: 169.5 lb
Body Weight for Patients of Age 18 and Beyond, Actual, Min-Max [4, 11]: 117-269 lb
Body Weight, Actual, Mean ([4]; Screening, Safety Population): 172.9 lb
Body Weight, Actual, Median ([4]; Screening, Safety Population): 168.5 lb
Body Weight, Actual, Min-Max ([4]; Screening, Safety Population): 85-269 lb
Diastolic Blood Pressure, Actual, Mean ([4]; Screening, Safety Population): 75.6 mmHg
Diastolic Blood Pressure, Actual, Median ([4]; Screening, Safety Population): 78.0 mmHg
Diastolic Blood Pressure, Actual, Min-Max ([4]; Screening, Safety Population): 50-95 mmHg
Pulse Rate, Actual, Mean ([4]; Screening, Safety Population): 75.5 bpm
Pulse Rate, Actual, Median ([4]; Screening, Safety Population): 78.0 bpm
Pulse Rate, Actual, Min-Max ([4]; Screening, Safety Population): 50-103 bpm
Respiration, Actual, Mean ([4]; Screening, Safety Population): 15.7 bpm
Respiration, Actual, Median ([4]; Screening, Safety Population): 16.0 bpm
Respiration, Actual, Min-Max ([4]; Screening, Safety Population): 12-20 bpm
Systolic Blood Pressure, Actual, Mean ([4]; Screening, Safety Population): 121.2 mmHg
Systolic Blood Pressure, Actual, Median ([4]; Screening, Safety Population): 119.5 mmHg
Systolic Blood Pressure, Actual, Min-Max ([4]; Screening, Safety Population): 96-156 mmHg
Temperature, Actual, Mean ([4]; Screening, Safety Population): 98.04 ° F.
Temperature, Actual, Median ([4]; Screening, Safety Population): 98.00 ° F.
Temperature, Actual, Min-Max ([4]; Screening, Safety Population): 96.9-99.3 ° F.
